Test results: ChEMBL document CHEMBL1131412, “N-[2-[4-(4-Chlorophenyl)piperazin-1-yl]ethyl]-3-methoxybenzamide: a potent and selective dopamine D4 ligand” (J Med Chem, 1998)
pIC50, pKi: −log10 of the molar value.

The compounds below were run against T1, Adrenergic receptor alpha-1 (Rattus norvegicus, UniProt P15823+P23944+P43140) (assay: Binding affinity was measured at the Alpha-1 adrenergic receptor using [3H]prazosin as radioligand in rat brain cortex membrane.).
T1 sequence (P15823 whole entry): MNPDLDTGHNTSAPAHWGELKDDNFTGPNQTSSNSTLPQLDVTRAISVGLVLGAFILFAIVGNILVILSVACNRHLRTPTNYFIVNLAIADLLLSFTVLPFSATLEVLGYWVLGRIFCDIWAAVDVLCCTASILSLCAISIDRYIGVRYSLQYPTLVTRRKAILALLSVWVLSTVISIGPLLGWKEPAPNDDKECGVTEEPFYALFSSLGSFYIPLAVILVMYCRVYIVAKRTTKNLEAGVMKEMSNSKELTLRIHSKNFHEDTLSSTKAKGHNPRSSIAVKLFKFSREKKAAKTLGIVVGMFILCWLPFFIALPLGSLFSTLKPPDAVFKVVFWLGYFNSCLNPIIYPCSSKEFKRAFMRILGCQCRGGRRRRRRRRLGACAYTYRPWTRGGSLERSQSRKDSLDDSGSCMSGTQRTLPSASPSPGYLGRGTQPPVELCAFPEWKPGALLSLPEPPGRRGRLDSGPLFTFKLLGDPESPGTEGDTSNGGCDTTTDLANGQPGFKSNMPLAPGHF
T1 sequence (P23944 whole entry): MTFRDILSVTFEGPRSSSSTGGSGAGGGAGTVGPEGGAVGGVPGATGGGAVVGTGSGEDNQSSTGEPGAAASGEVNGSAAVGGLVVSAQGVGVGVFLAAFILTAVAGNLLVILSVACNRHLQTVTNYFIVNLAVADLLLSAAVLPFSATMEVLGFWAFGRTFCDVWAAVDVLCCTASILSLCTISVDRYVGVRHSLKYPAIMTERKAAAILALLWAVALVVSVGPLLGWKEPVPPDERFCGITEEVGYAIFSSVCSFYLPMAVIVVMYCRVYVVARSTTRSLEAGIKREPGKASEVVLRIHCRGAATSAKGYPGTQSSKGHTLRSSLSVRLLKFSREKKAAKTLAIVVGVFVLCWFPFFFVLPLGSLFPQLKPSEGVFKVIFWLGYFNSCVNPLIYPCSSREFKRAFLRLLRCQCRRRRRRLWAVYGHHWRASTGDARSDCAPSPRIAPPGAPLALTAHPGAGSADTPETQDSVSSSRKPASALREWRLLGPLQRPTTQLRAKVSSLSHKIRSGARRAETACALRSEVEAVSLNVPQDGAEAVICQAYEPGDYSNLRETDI
T1 sequence (P43140 whole entry): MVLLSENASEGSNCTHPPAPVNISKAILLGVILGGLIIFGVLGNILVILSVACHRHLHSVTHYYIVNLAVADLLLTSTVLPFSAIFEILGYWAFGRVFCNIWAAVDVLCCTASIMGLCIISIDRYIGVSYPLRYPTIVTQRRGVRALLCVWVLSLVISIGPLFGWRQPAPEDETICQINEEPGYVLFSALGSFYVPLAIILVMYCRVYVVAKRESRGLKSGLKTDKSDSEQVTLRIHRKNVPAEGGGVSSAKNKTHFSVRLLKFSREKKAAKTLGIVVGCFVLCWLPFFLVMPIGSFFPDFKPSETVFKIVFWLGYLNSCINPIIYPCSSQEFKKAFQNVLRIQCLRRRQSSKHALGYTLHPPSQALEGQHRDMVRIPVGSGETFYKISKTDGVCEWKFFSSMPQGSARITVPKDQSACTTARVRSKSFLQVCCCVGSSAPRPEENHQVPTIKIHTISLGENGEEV
Type: cell membranes

With `COc1cccc(C(=O)NCCN2CCN(c3ccc(Cl)cc3)CC2)c1` the IC50 was 270 nM.

Each compound was assayed against T2, D(4) dopamine receptor (Homo sapiens, UniProt P21917) (assay: In vitro binding affinity was measured at the cloned human Dopamine receptor D4.2 using [3H]YM-09151-2 as radioligand.).
T2 sequence (P21917 whole entry): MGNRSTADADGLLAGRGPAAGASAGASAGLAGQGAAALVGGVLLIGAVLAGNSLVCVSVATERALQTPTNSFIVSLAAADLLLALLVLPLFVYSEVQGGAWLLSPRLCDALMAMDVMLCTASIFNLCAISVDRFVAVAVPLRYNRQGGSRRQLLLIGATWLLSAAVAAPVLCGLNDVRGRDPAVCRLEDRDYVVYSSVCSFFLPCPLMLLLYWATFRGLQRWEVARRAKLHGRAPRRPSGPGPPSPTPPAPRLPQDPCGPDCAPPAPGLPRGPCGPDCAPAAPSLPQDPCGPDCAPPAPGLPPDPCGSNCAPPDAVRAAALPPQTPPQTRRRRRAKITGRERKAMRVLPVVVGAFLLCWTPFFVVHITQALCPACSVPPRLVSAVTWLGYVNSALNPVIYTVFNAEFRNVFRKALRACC

Compared with `COc1ccccc1N1CCN(Cc2ccn(-c3ccccc3)c2)CC1`, `COc1ccccc1N1CCN(CCNC2=Nc3ccccc3OC2)CC1` is 0.63 log units lower in pKi: 9.15 for the first, 8.52 for the second.

The compounds below were run against T2, D(4) dopamine receptor (assay: In vitro binding affinity at human cloned Dopamine receptor D4.2 by [3H]YM-09151-2 displacement.).

First: COc1ccc2c(c1)C(CCCN1CCN(c3ccccc3OC)CC1)CCC2 (stereo not given)
Second: COc1ccc2c(c1)CC(NC(=O)CN1CCN(c3ccccc3OC)CC1)CC2 (stereo not given)
The pIC50 of the first is 0.22 log units higher: 6.55 for the first, 6.33 for the second. The first is the more potent here.

Compared with `COc1cccc(C(=O)CCCN2CCN(c3ccccc3OC)CC2)c1`, `COc1cccc(C(=O)NCCN2CCN(Cc3ccccc3OC)CC2)c1` is 0.99 log units lower in pIC50: 8.51 for the first, 7.52 for the second. The first is the more potent here.

Compared with `COc1ccc(OC)c(C(=O)NCCN2CCN(c3ccccc3OC)CC2)c1`, `COc1ccccc1C(=O)NCCN1CCN(c2ccccc2OC)CC1` is 0.29 log units higher in pIC50: 8.11 for the first, 8.40 for the second. The second is the more potent here.

`COc1cccc(-c2csc(CN3CCN(c4ccccc4OC)CC3)n2)c1` and `COc1ccccc1N1CCN(CC(=O)NC2CCc3c(cccc3OC)C2)CC1` (stereo not given) are within 0.2 log units of each other in pIC50: 6.13 for the first, 6.07 for the second.

Compared with `COc1ccccc1N1CCN(CCC(=O)NC2CCc3c(cccc3OC)C2)CC1` (stereo not given), `COc1cccc(C(=O)NCCN2CCN(c3ccc(Cl)cc3)CC2)c1` is 3.32 log units higher in pIC50: 6.92 for the first, 10.24 for the second. The second is the more potent here.

For `COc1cccc(C(=O)NCCN2CCN(Cc3ccc(Cl)cc3)CC2)c1`, the pIC50 was 7.15.

Each compound was assayed against T3, 5-hydroxytryptamine receptor 1A (Rattus norvegicus, UniProt P19327) (assay: Binding affinity was measured at the serotonin 5-hydroxytryptamine 1A receptor using [3H]8-OH-DPAT as radioligand in rat hippocampal membrane.).
T3 sequence (P19327 whole entry): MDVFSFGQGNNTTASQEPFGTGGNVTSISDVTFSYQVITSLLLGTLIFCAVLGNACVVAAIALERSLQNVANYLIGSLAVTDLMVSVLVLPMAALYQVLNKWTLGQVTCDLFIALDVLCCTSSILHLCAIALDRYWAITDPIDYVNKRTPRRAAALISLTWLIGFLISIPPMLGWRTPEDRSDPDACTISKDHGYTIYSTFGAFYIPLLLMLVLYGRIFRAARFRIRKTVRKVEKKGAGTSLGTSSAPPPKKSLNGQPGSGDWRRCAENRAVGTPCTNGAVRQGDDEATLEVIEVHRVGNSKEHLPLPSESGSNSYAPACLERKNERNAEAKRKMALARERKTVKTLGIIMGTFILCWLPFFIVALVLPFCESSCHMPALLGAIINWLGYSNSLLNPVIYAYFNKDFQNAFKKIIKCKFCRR
Type: cell membranes, Hippocampus

For `COc1cccc(C(=O)NCCN2CCN(c3ccc(Cl)cc3)CC2)c1`, the pIC50 was 6.66.
